Among the data in DBAASP are MIC values, retold here.

Converted amounts (≈) assume the structure as drawn. “And” between values parts separate entries of the source, which are not always exact repeats. Identical values can stand only once. A value given as a limit tells only on which side of the number the result lay.

What all share (assay): ≥ marks a high value that may be exact or a test limit, other limits are often not marked, values filed in µg/mL are converted to µM
Test [1] concerns Mycobacterium tuberculosis CSU87.
The test system of test [2] is Mycobacterium tuberculosis H37Rv.
The test system of test [3] is Acinetobacter baumannii ATCC 19606.
Test [4] deals with Candida albicans ATCC 90028.
The subject of test [5] is Candida parapsilosis ATCC 22019.
The subject of test [6] is Enterococcus faecalis ATCC 29212.
Test [7] deals with Escherichia coli ATCC 25922.
Test [8] deals with Klebsiella pneumoniae ATCC 13883.
In test [9] the test system is Listeria ivanovii.
Test [10] relates to Pseudomonas aeruginosa ATCC 27853.
Test [11] relates to Saccharomyces cerevisiae.
For test [12], the system named is Staphylococcus aureus ATCC 25923.
In test [13] the test system is Staphylococcus aureus ATCC BAA-44.
For test [14], the system named is Streptococcus pyogenes ATCC 19615.
Test [15] has as its system Aerococcus viridans.
The test system of test [16] is Alternaria brassicicola.
For test [17], the system named is Ascochyta pisi.
Test [18] concerns Bacillus megaterium.
Test [19] has as its system Bacillus subtilis.
Test [20] deals with Botrytis cinerea.
Test [21] relates to Escherichia coli D22.
The test system of test [22] is Escherichia coli D31.
Test [23] concerns Fusarium culmorum.
In test [24] the test system is Fusarium haematococcum.
Test [25] has as its system Micrococcus luteus.
Test [26] deals with Neurospora crassa.
Test [27] concerns Pediococcus acidilactici.
The subject of test [28] is Salmonella typhimurium.
The subject of test [29] is Trichoderma viride.
In test [30] the test system is Bacillus subtilis BGSC 1A1.
Test [31] has as its system Klebsiella pneumoniae.
Test [32] deals with Mycobacterium tuberculosis mc2-6020.
Test [33] deals with Mycobacterium tuberculosis mc2-6230.
Test [34] deals with Streptococcus agalactiae.
Test [35] concerns Streptococcus mutans.
Test [36] concerns Streptococcus pneumoniae ATCC 49619.
Test [37] relates to Streptococcus pyogenes.
The test system of test [38] is Streptococcus mutans UA159.
The test system of test [39] is Streptococcus sanguinis ATCC 10556.
The subject of test [40] is Streptococcus sobrinus ATCC 6715.
For test [41], the system named is Bacillus subtilis PS832.
Test [42] deals with Escherichia coli DL7.
The subject of test [43] is Escherichia coli MG1655 ΔrecA.
In test [44] the test system is Escherichia coli MG1655.
Test [45] deals with Klebsiella aerogenes ATCC 13048.
Test [46] concerns Staphylococcus epidermidis ATCC 12228.

A word on the MIC: it is the lowest concentration that inhibits growth of the organism. A high value points to a need for much substance.

As for `CC(C)C[C@H](NC(=O)[C@H](CC(C)C)NC(=O)[C@H](CCCCN)NC(=O)[C@H](CCCCN)NC(=O)[C@H](CC(C)C)NC(=O)[C@H](CC(C)C)NC(=O)[C@@H](N)CS)C(=O)N[C@@H](CCCCN)C(=O)N[C@@H](CCCCN)C(N)=O` [CLLKKLLKK], the MIC in test [1] and in test [2] was no less than 460 µM throughout.
On to `CC[C@H](C)[C@H](NC(=O)[C@H](CCCN=C(N)N)NC(=O)[C@H](CO)NC(=O)[C@H](CC(C)C)NC(=O)[C@H](Cc1ccccc1)NC(=O)[C@H](CO)NC(=O)[C@@H](N)Cc1ccccc1)C(=O)N[C@@H](Cc1ccccc1)C(N)=O` [FSFLSRIF], for which the MIC in test [3] is greater than 100 µM; in [4], no less than 100 µM; in [5], no less than 100 µM; in test [6], greater than 100 µM; in test [7] it was 100 µM (≈ 102 µg/mL); in test [8], no less than 100 µM. The MIC in test [9] is no less than 100 µM; in [10] it was greater than 100 µM; in test [11], 25 µM (≈ 25.4 µg/mL); in [12] it was greater than 100 µM; in test [13] it was no less than 100 µM; in test [14], no less than 50 µM.
Regarding `CC[C@H](C)[C@H](NC(=O)[C@@H](NC(=O)[C@@H]1CCCN1C(=O)[C@@H](NC(=O)[C@@H]1CCCN1C(=O)[C@H](CCCCN)NC(=O)[C@H](CCCCN)NC(=O)[C@H](CO)NC(=O)CN)C(C)C)[C@@H](C)CC)C(=O)N[C@@H](Cc1ccc(O)cc1)C(=O)N[C@H]1CSSC[C@@H](C(=O)N[C@@H](CCC(N)=O)C(=O)N[C@@H](CCCN=C(N)N)C(=O)O)NC(=O)[C@H](CCCCN)NC(=O)CNC(=O)[C@H]([C@@H](C)O)NC(=O)[C@H](CCCN=C(N)N)NC(=O)[C@H](CCCN=C(N)N)NC(=O)[C@H](CC(N)=O)NC1=O` [GSKKPVPIIYCNRRTGKCQR], the MIC is 3.54 µM (≈ 8.14 µg/mL) in test [15]; 7.07 µM (≈ 16.3 µg/mL) in test [16]; 14.1 µM (≈ 32.6 µg/mL) in test [17]; 3.54 µM (≈ 8.14 µg/mL) in [18]; 28.3 µM (≈ 65.1 µg/mL) in [19]; 7.07 µM (≈ 16.3 µg/mL) in [20]. The MIC stood at 28.3 µM (≈ 65.1 µg/mL) in test [21]; 28.3 µM (≈ 65.1 µg/mL) in test [22]; 14.1 µM (≈ 32.6 µg/mL) in test [23]; 3.54 µM (≈ 8.14 µg/mL) in test [24]; 3.54 µM (≈ 8.14 µg/mL) in [25]; 7.07 µM (≈ 16.3 µg/mL) in test [26]. Further, the MIC in test [27] was found to be 28.3 µM (≈ 65.1 µg/mL); in test [28] it was 28.3 µM (≈ 65.1 µg/mL); in [29], 14.1 µM (≈ 32.6 µg/mL).
As to `CC[C@H](C)[C@H](N)C(=O)N[C@@H](CC(C)C)C(=O)N[C@@H](CO)C(=O)N[C@@H](CC(C)C)C(=O)N[C@@H](CCCN=C(N)N)C(=O)N[C@@H](Cc1c[nH]c2ccccc12)C(=O)N[C@@H](Cc1c[nH]c2ccccc12)C(=O)N[C@@H](CCCN=C(N)N)C(=O)N[C@@H](CCCCN)C(=O)N[C@@H](Cc1c[nH]c2ccccc12)C(=O)N[C@@H](Cc1c[nH]c2ccccc12)C(=O)N[C@@H](CCCCN)C(=O)N[C@@H](CCCCN)C(=O)O` [ILSLRWWRKWWKK], the MIC is 4 µM (≈ 7.55 µg/mL) in test [30]; 16 µM (≈ 30.2 µg/mL) in test [7]; 136 µM (≈ 257 µg/mL) in test [31]; 16 µM (≈ 30.2 µg/mL) in [32]; no less than 32 µM in test [33]; 32 µM (≈ 60.4 µg/mL) in test [10]. Also, the MIC turned out to be 32 µM (≈ 60.4 µg/mL) in [12]; 8 µM (≈ 15.1 µg/mL) in test [34]; 4 µM (≈ 7.55 µg/mL) in [35]; 16 µM (≈ 30.2 µg/mL) in test [36]; 2 µM (≈ 3.77 µg/mL) in [37].
For the molecule `NCCCC[C@H](NC(=O)[C@H](CCCCN)NC(=O)[C@H](Cc1ccccc1)NC(=O)[C@H](Cc1ccccc1)NC(=O)[C@H](CCCCN)NC(=O)[C@H](CCCCN)NC(=O)[C@H](Cc1ccccc1)NC(=O)[C@H](Cc1ccccc1)NC(=O)[C@@H](N)CCCCN)C(=O)N[C@@H](Cc1c[nH]c2ccccc12)C(=O)O` [KFFKKFFKKW], the MIC in test [38] was no less than 357 µM; in [39] it was no less than 357 µM; in test [40] it was no less than 179 µM.
Take `CC(C)C[C@H](NC(=O)CNC(=O)[C@H](C)NC(=O)[C@@H](N)CCCN=C(N)N)C(=O)N[C@@H](CCC(N)=O)C(=O)N[C@@H](Cc1ccccc1)C(=O)N1CCC[C@H]1C(=O)N[C@H](C(=O)NCC(=O)N[C@@H](CCCN=C(N)N)C(=O)N[C@H](C(=O)N[C@@H](Cc1cnc[nH]1)C(=O)N[C@@H](CCCN=C(N)N)C(=O)N[C@@H](CC(C)C)C(=O)N[C@@H](CC(C)C)C(=O)N[C@@H](CCCN=C(N)N)C(=O)N[C@@H](CCCCN)C(N)=O)C(C)C)C(C)C` [RAGLQFPVGRVHRLLRK]: the MIC in test [41] is 8 µM (≈ 16 µg/mL); in [42], ≥ 32 µM and 16 µM; in test [43] it was no less than 32 µM; in test [44], no less than 64 µM; in [45], no less than 64 µM; in [2], no less than 300 µM. Also, the MIC in test [46] is 8 µM (≈ 16 µg/mL); in test [36] it was no less than 300 µM.
